Measurements: patent US11786532B2, “2-pyridones and methods of use thereof” (ALIGOS THERAPEUTICS, INC., priority 2020, dated 2023)

Each compound was assayed against T1, human thyroid receptor beta ligand-binding domain (THR-beta) (Homo sapiens, UniProt P10828) (assay: THR Biochemical Assay (Assay 1): TR-FRET thyroid receptor beta coactivator assay). Details: TR-FRET SRC2-2 coactivator recruitment, GST-tagged THR-beta LBD 1 nM, 1 hr at rt; read-out: Assay 1 (EC50, THR-beta agonist activity).
T1 sequence (P10828 217-461 limits assumed): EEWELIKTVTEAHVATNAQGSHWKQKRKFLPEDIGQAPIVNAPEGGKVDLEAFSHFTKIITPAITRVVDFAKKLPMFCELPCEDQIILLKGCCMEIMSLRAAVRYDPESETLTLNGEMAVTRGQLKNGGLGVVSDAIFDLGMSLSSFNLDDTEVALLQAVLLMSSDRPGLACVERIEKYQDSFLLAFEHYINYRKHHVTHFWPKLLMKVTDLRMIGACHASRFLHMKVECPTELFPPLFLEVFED
Excerpt: THR Biochemical Assay (Assay 1)
The TR-FRET thyroid receptor beta coactivator assay is to be used. The assay uses a terbium-labeled anti-GST antibody, a glutathione-S-transferase (GST) tagged human thyroid receptor, beta or alpha, ligand-binding domain (LBD), and a fluorescein labeled SRC2-2 coactivator peptide. The antibody interacts with the LBD, where the agonist will also bind, resulting in increased affinity for the SRC2-2 coactivator peptide causing energy transfer of the acceptor fluorophore and a FRET emission shift from 495 to 520 nm. The energy transfer is detected as an increase in the fluorescence emission of the fluorescein acceptor, and a decrease in the fluorescence emission of the terbium donor. The assay is to be performed in a 384-well black plate in a final volume of 20 μL. Serial dilution of various test agonists will be performed in DMSO (1% final DMSO concentration) and added to the test plate. Thyroid receptor beta LBD will usually be added to the plate at a final concentration of 1 nM, followed by the mixture of the fluorescein labeled SRC2-2 coactivator peptide, and the terbium-labeled anti-GST antibody at final concentrations of 200 nM and 2 nM respectively. The assay will often be incubated for 1 hr at rt protected from light. The TR-FRET will then be measured on a Victor multilabel reader (Perkin Elmer) using an excitation wavelength of 340 nm with emission filters of 495 nm and 520 nm. The assay will be quantified by expressing a ratio (520:495) of the intensities, and the resulting activation curves; EC50 values are to be generated using a sigmoidal dose response (variable slope) equation in GraphPad™ Prism 8.0.
`CC(n1cc(Oc2c(Cl)cc(-n3nc(N)c(=O)[nH]c3=O)cc2Cl)ccc1=O)C(F)(F)F` (centres unmarked) [Example 32, 6-amino-2-(3,5-dichloro-4-((6-oxo-1-(1,1,1-trifluoropropan-2-yl)-1,6-dihydropyridin-3-yl)oxy)phenyl)-1,2,4-triazine-3,5(2H,4H)-dione] was tested, and the EC50 was 50 to 250 nM.
`Cc1cc(-n2nc(N)c(=O)[nH]c2=O)cc(C)c1Cc1c[nH]c(=O)c(C(C)C)c1` [Example 33, 6-amino-2-(4-((5-isopropyl-6-oxo-1,6-dihydropyridin-3-yl)methyl)-3,5-dimethylphenyl)-1,2,4-triazine-3,5(2H,4H)-dione] gave an EC50 of 250 to 1000 nM.
In the case of `CC1CCc2c(Oc3c(Cl)cc(-n4nc(C#N)c(=O)[nH]c4=O)cc3Cl)c[nH]c(=O)c21` (centres unmarked) [Example 34, 2-(3,5-Dichloro-4-((7-methyl-1-oxo-2,5,6,7-tetrahydro-1H-cyclopenta[c]pyridin-4-yl)oxy)phenyl)-3,5-dioxo-2,3,4,5-tetrahydro-1,2,4-triazine-6-carbonitrile], the EC50 is reported as 250 to 1000 nM.
For `CC1CCc2c(Oc3c(Cl)cc(-n4nc(C#N)c(=O)[nH]c4=O)cc3Cl)ccc(=O)n21` (centres unmarked) [Example 35, 2-(3,5-dichloro-4-((3-methyl-5-oxo-1,2,3,5-tetrahydroindolizin-8-yl)oxy)phenyl)-3,5-dioxo-2,3,4,5-tetrahydro-1,2,4-triazine-6-carbonitrile], the EC50 was under 50 nM.
Compound `CC1CCc2c(Oc3c(Cl)cc(-n4nc(N)c(=O)[nH]c4=O)cc3Cl)ccc(=O)n21` (centres unmarked) [Example 36, 6-amino-2-(3,5-dichloro-4-((3-methyl-5-oxo-1,2,3,5-tetrahydroindolizin-8-yl)oxy)phenyl)-1,2,4-triazine-3,5(2H,4H)-dione] has an EC50 of under 50 nM.
